Where two headings read alike, the source gives them in different places.

Assay [1] has as its target T1, baculovirus-expressed ALK (Homo sapiens, UniProt Q9UM73).
T1 construct: host or cells: baculovirus expression system
As to the kind of experiment: ALK Kinase Assay (ELISA-type, time-resolved fluorescence). Format: biochemical. In a few lines: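 Wells were coated with phospholipase C-γ at 10 μg/mL in Tris-buffered saline. Adding 30 ng/ml enzyme started the reaction, which ran at 37° C for 15 minutes before Eu-N1 PT66 antibody detection. Percent inhibition versus log10 concentration gave IC50 by variable-slope fit.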
(In general: An ELISA detects its analyte on a solid surface through an enzyme-linked reagent.)

Assay [2] concerns the target T2, c-Met (cytoplasmic domain) (Homo sapiens, UniProt P08581).
T2 construct: 10 ng/mL c-Met (cytoplasmic domain, Invitrogen Corporation #PV3143); purchased Invitrogen Corporation PV3143
As to the kind of experiment: c-Met Kinase Assay (same methods as for ALK, with modifications). Format: biochemical. In a few lines:
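IC50 values were fitted by variable-slope sigmoidal regression of percent inhibition against log compound concentration. Phosphorylation was read with Eu-N1 PT66 antibody after a 15 min, 37 °C reaction. The reaction was initiated with 10 ng/mL c-Met cytoplasmic domain on wells coated with 10 μg/mL PLC-γ in TBS.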

Where [3] appears, read: ALK kinase inhibition, 1 μM ATP, read-out: ALK Activity.
The mark [4] stands for this setting: c-Met kinase inhibition, 1 μM ATP, read-out: cMet Activity.
The mark [5] stands for this setting: 1 μM ATP (Km level), 30 ng/ml ALK, 37° C., 15 minutes, read-out: ALK Activity (ALK kinase inhibition, IC50 class).
Setting [6] is: 1 μM ATP (Km level), 10 ng/mL c-Met, read-out: cMet Activity (c-Met kinase inhibition, IC50 class).
The mark [7] stands for this setting: ALK kinase inhibition, 1 μM ATP (Km level), read-out: ALK Activity.
The mark [8] stands for this setting: c-Met kinase inhibition, 1 μM ATP (Km level), read-out: cMet Activity.
[9] abbreviates: 1 μM ATP (Km level), read-out: ALK Activity (ALK Kinase Inhibition, IC50).
Where [10] appears, read: 1 μM ATP (Km level), read-out: cMet Activity (c-Met Kinase Inhibition, IC50).

T2 sequence (P08581 956-1390 limits assumed): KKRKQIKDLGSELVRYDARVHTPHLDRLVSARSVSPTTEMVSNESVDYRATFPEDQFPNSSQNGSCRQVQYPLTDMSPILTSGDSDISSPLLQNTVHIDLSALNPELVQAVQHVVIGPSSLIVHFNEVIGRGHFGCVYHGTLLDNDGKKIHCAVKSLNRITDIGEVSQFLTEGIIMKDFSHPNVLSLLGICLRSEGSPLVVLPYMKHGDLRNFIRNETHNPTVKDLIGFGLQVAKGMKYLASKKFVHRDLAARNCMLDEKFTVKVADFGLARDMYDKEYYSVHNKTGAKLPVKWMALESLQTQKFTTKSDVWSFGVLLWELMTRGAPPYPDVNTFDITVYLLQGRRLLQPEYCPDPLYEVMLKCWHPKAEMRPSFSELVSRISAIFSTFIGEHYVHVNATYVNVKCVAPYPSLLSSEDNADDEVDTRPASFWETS
T1 sequence (Q9UM73 19-1620): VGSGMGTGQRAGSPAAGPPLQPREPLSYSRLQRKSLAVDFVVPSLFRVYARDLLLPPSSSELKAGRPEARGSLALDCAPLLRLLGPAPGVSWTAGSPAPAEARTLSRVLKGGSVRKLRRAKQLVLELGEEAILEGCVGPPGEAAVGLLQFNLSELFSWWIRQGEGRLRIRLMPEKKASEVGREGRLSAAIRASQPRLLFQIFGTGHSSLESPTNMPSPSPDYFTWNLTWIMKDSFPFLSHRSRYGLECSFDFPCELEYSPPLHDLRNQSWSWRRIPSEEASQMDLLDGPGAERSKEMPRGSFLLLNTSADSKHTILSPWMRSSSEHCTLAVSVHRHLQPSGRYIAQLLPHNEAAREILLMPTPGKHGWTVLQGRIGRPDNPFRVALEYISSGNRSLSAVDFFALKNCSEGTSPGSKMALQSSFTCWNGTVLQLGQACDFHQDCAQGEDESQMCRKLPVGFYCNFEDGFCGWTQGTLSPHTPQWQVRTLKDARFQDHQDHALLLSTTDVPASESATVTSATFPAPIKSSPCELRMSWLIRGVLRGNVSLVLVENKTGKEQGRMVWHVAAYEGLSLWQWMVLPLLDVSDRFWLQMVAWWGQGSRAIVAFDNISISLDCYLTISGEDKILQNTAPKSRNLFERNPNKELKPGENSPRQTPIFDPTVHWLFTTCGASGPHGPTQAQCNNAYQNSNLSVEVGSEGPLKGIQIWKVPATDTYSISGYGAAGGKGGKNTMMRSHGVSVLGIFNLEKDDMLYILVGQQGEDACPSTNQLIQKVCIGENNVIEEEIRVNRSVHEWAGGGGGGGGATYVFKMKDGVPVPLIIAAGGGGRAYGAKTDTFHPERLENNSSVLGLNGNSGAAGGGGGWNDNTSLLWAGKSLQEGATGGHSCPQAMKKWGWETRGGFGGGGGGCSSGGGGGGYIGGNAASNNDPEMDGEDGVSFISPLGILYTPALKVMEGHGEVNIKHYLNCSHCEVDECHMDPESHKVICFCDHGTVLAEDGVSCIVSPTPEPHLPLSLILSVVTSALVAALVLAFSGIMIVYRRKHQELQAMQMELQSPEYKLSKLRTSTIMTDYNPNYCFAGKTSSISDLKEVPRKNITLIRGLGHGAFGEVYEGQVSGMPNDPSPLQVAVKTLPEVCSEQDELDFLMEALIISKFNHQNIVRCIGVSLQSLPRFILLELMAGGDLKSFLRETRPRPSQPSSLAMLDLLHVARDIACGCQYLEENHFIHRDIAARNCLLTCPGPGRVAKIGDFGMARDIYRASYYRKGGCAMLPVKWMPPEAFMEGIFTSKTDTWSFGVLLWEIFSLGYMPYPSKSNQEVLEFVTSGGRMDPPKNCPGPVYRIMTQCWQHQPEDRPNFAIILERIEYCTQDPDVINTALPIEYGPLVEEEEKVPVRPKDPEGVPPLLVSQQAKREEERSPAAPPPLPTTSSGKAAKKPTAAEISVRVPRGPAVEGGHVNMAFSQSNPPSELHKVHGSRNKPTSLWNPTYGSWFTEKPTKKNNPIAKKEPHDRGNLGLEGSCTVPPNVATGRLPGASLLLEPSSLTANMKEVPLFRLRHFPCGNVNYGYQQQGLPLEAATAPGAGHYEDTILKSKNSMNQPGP

In the case of `COc1cc2c(cc1Nc1ncc(Cl)c(Nc3ccccc3S(=O)(=O)C(C)C)n1)CCN(CCN1CCOCC1)CC2` [Example 1534, 5-Chloro-N(2)-[8-methoxy-3-(2-morpholin-4-yl-ethyl)-2,3,4,5-tetrahydro-1H-3-benzazepin-7-yl]-N(4)-[2-(propane-2-sulfonyl)-phenyl]-pyrimidine-2,4-diamine], the results for the IC50 in assay [1] (setting [3]) and in assay [2] (setting [4]) were < 100 nM and > 10000 nM, respectively.
Consider `CCN1C(=O)CCCc2ccc(Nc3ncc(Cl)c(Nc4cccc(CC#N)c4)n3)cc21` [Example 1229, {3-[5-Chloro-2-(1-ethyl-2-oxo-2,3,4,5-tetrahydro-1H-1-benzazepin-8-ylamino)-pyrimidin-4-ylamino]-phenyl}-acetonitrile], for which the IC50 in assay [1] (setting [5]) and in assay [2] (setting [6]) was 100 to 1000 nM throughout.
Turning to `CNC(=O)c1cccc(Cl)c1Nc1nc(Nc2ccc3c(c2)-n2ccnc2CCC3)ncc1Cl` [Example 1839, 2-[5-Chloro-2-(5,6-dihydro-4H-3,10b-diaza-benzo[e]azulen-9-ylamino)-pyrimidin-4-ylamino]-3-chloro-N-methyl-benzamide], the figures for the IC50 in assay [1] (setting [3]) and in assay [2] (setting [4]) were 1000 to 10000 nM and 100 to 1000 nM, respectively.
Regarding `C#CCN1CC2CCC(C1)c1cc(Nc3ncc(Cl)c(Nc4ccccc4S(=O)(=O)NC)n3)ccc12` (centres unmarked) [Example 287, 2-[5-Chloro-2-(10-prop-2-ynyl-10-aza-tricyclo[6.3.2.0*2,7*]trideca-2,4,6-trien-4-ylamino)-pyrimidin-4-ylamino]-N-methyl-benzenesulfonamide], the IC50 in assay [1] (setting [7]) was < 100 nM; in assay [2] (setting [8]) it was 100 to 1000 nM.
`CCN1CCc2ccc(Nc3ncc(Cl)c(NCCC(=O)NC)n3)cc2CC1` [Example 211, 3-[5-Chloro-2-(3-ethyl-2,3,4,5-tetrahydro-1H-benzo[d]azepin-7-ylamino)-pyrimidin-4-ylamino]-N-methyl-propionamide]: the IC50 is 100 to 1000 nM in assay [1] (setting [7]) and 1000 to 10000 nM in assay [2] (setting [8]).
For the molecule `CNC(=O)c1cccc(F)c1Nc1nc(Nc2ccc3c(c2)N(CCOC)C(=O)CCC3)ncc1C(F)(F)F` [Example 926, 3-Fluoro-2-{2-[1-(2-methoxy-ethyl)-2-oxo-2,3,4,5-tetrahydro-1H-benzo[b]azepin-8-ylamino]-5-trifluoromethyl-pyrimidin-4-ylamino}-N-methyl-benzamide], the IC50 in assay [1] (setting [9]) and in assay [2] (setting [10]) was < 100 nM each time.
As to `CC(C)N1CC2CC(C1)c1cc(Nc3ncc(Cl)c(N[C@@H]4CCCC[C@H]4NS(C)(=O)=O)n3)ccc12` (stereo partly drawn) [Example 165, N-{(1R,2R)-2-[5-Chloro-2-(10-isopropyl-10-aza-tricyclo[6.3.1.0*2,7*]dodeca-2,4,6-trien-4-ylamino)-pyrimidin-4-ylamino]-cyclohexyl}-methanesulfonamide], the IC50 fell in the range of 100 to 1000 nM in assay [1] (setting [7]) and 1000 to 10000 nM in assay [2] (setting [8]).
Regarding `CCCNC(=O)c1ccccc1Nc1nc(Nc2ccc3c(c2)CCCC(=O)N3)ncc1Cl` [Example 1024, 2-[5-Chloro-2-(2-oxo-2,3,4,5-tetrahydro-1H-benzo[b]azepin-7-ylamino)-pyrimidin-4-ylamino]-N-propyl-benzamide], the IC50 in assay [1] (setting [5]) and in assay [2] (setting [6]) was < 100 nM throughout.
On to `CCN1CCCOc2cc(Nc3ncc(Cl)c(Nc4ccsc4C(=O)NC)n3)ccc21` [Example 1409, 3-[5-Chloro-2-(9-ethyl-6,7,8,9-tetrahydro-5-oxa-9-aza-benzocyclohepten-3-ylamino)-pyrimidin-4-ylamino]-thiophene-2-carboxylic acid methyl amide], for which the IC50 in assay [1] (setting [5]) and in assay [2] (setting [6]) was 100 to 1000 nM throughout.
Consider `NC(=O)[C@@H]1[C@H]2CC[C@H](C2)[C@@H]1Nc1nc(Nc2ccc3c(c2)CCC(NCC(F)(F)F)CC3)ncc1Cl` (stereo partly drawn) [Example 654, (1S,2R,3S,4R)-3-{5-Chloro-2-[7-(2,2,2-trifluoro-ethylamino)-6,7,8,9-tetrahydro-5H-benzocyclohepten-2-ylamino]-pyrimidin-4-ylamino}-bicyclo[2.2.1]heptane-2-carboxylic acid amide], for which the figures for the IC50 in assay [1] (setting [9]) and in assay [2] (setting [10]) were < 100 nM and 100 to 1000 nM, respectively.
For the molecule `COCCN1CCc2ccc(Nc3ncc(Cl)c(Nc4ccccc4OCCN4CCOCC4)n3)cc2CC1` [Example 1466, 5-Chloro-N*2*-[3-(2-methoxy-ethyl)-2,3,4,5-tetrahydro-1H-enzo[d]azepin-7-yl]-N*4*-[2-(2-morpholin-4-yl-ethoxy)-phenyl]-pyrimidine-2,4-diamine], the IC50 is 1000 to 10000 nM in assay [1] (setting [3]) and > 10000 nM in assay [2] (setting [4]).
`COc1cc2c(cc1Nc1ncc(Cl)c(N[C@H]3[C@@H](C(N)=O)[C@@H]4C=C[C@H]3C4)n1)CCN(CCS(C)(=O)=O)CC2` [Example 1128, (1S,2S,3R,4R)-3-{5-Chloro-2-[3-(2-methanesulfonyl-ethyl)-8-methoxy-2,3,4,5-tetrahydro-1H-benzo[d]azepin-7-ylamino]-pyrimidin-4-ylamino}-bicyclo[2.2.1]hept-5-ene-2-carboxylic acid amide]: the IC50 is < 100 nM in assay [1] (setting [5]) and > 10000 nM in assay [2] (setting [6]).
“2-[5-Chloro-2-(1-methyl-1,2,3,5-tetrahydro-benzo[e][1,4]oxazepin-7-ylamino)-pyrimidin-4-ylamino]-N-(2-hydroxy-ethyl)-benzamide and 2-{2-[5-Chloro-2-(1-methyl-1,2,3,5-tetrahydro-benzo[e][1,4]oxazepin-7-ylamino)-pyrimidin-4-ylamino]-phenyl}-oxazolidin-2-ol [Example 16]”: the IC50 in assay [1] (setting [7]) and in assay [2] (setting [8]) was < 100 nM each time.
Consider `COCC(COC)N1CCc2cc(Nc3ncc(Cl)c(Nc4ccc(Cl)cc4S(=O)(=O)N(C)C)n3)c(OC)cc2CC1` [Example 838, 5-Chloro-2-{5-chloro-2-[8-methoxy-3-(2-methoxy-1-methoxymethyl-ethyl)-2,3,4,5-tetrahydro-1H-benzo[d]azepin-7-ylamino]-pyrimidin-4-ylamino}-N,N-dimethyl-benzenesulfonamide], for which the results for the IC50 in assay [1] (setting [9]) and in assay [2] (setting [10]) were < 100 nM and > 10000 nM, respectively.
On to `COCCN1CCc2ccc(Nc3ncc(Cl)c(Nc4ccc(N5CCOCC5)cc4S(=O)(=O)N(C)C)n3)cc2CC1` [Example 853, 2-{5-Chloro-2-[3-(2-methoxy-ethyl)-2,3,4,5-tetrahydro-1H-benzo[d]azepin-7-ylamino]-pyrimidin-4-ylamino}-N,N-dimethyl-5-morpholin-4-yl-benzenesulfonamide], for which the IC50 in assay [1] (setting [9]) is < 100 nM; in assay [2] (setting [10]) it was 1000 to 10000 nM.
`CNC(=O)c1ccccc1Nc1nc(Nc2ccc3c(c2)-n2ccnc2CCC3)ncc1Cl` [Example 1836, 2-[5-Chloro-2-(5,6-dihydro-4H-3,10b-diaza-benzo[e]azulen-9-ylamino)-pyrimidin-4-ylamino]-N-methyl-benzamide]: the IC50 in assay [1] (setting [3]) is 100 to 1000 nM; in assay [2] (setting [4]) it was < 100 nM.
For `CN1CCN(C2CCN(C3CCc4ccc(Nc5ncc(Cl)c(N[C@H]6[C@@H](C(N)=O)[C@@H]7C=C[C@H]6C7)n5)cc4CC3)CC2)CC1` (stereo partly drawn) [Example 887, (1S,2S,3R,4R)-3-(5-Chloro-2-{7-[4-(4-methyl-piperazin-1-yl)-piperidin-1-yl]-6,7,8,9-tetrahydro-5H-benzocyclohepten-2-ylamino}-pyrimidin-4-ylamino)-bicyclo[2.2.1]hept-5-ene-2-carboxylic acid amide], the values for the IC50 in assay [1] (setting [9]) and in assay [2] (setting [10]) were < 100 nM and 100 to 1000 nM, respectively.
Take `Cn1ccnc1-c1ccccc1Nc1nc(Nc2ccc3c(c2)CCCC(=O)N3)ncc1Cl` [Example 994, 7-{5-Chloro-4-[2-(1-methyl-1H-imidazol-2-yl)-phenylamino]-pyrimidin-2-ylamino}-1,3,4,5-tetrahydro-benzo[b]azepin-2-one]: the IC50 in assay [1] (setting [9]) is < 100 nM; in assay [2] (setting [10]) it was > 10000 nM.
Consider `CCN1CCc2ccc(Nc3ncc(Br)c(Nc4ccccc4C(=O)NC)n3)cc2CC1` [Example 192, 2-[2-(3-Ethyl-2,3,4,5-tetrahydro-1H-benzo[d]azepin-7-ylamino)-5-bromo-pyrimidin-4-ylamino]-N-methyl-benzamide], for which the IC50 in assay [1] (setting [7]) and in assay [2] (setting [8]) was < 100 nM in each case.
With `COc1c(Nc2ncc(Cl)c(NC3CCCCNC3=O)n2)ccc2c1CCC(N1CCOCC1)CC2` (mixture of isomers) [Example 902, 3-[5-Chloro-2-(1-methoxy-7-morpholin-4-yl-6,7,8,9-tetrahydro-5H-benzocyclohepten-2-ylamino)-pyrimidin-4-ylamino]-azepan-2-one], the IC50 in assay [1] (setting [9]) was 100 to 1000 nM; in assay [2] (setting [10]), > 10000 nM.
For the molecule `Cc1noc(-c2ccccc2Nc2nc(Nc3ccc4c(c3)CCOC(=O)N4C)ncc2Cl)n1` [Example 1784, 2-{5-Chloro-4-[2-(3-methyl-[1,2,4]oxadiazol-5-yl)-phenylamino]-pyrimidin-2-ylamino}-5-methyl-8,9-dihydro-5H-7-oxa-5-aza-benzocyclohepten-6-one], the IC50 in assay [1] (setting [3]) and in assay [2] (setting [4]) was 1000 to 10000 nM each time.
As for `COCCN1CCc2cc(Nc3ncc(Cl)c(Nc4ccc(N5CCN(C)CC5)cc4OC)n3)c(OC)cc2CC1` [Example 790, 5-Chloro-N*2*-[8-methoxy-3-(2-methoxy-ethyl)-2,3,4,5-tetrahydro-1H-benzo[d]azepin-7-yl]-N*4*-[2-methoxy-4-(4-methyl-piperazin-1-yl)-phenyl]-pyrimidine-2,4-diamine], the IC50 is < 100 nM in assay [1] (setting [9]) and > 10000 nM in assay [2] (setting [10]).

Source of the values: US8148391B2 (Cephalon, Inc., priority 2006, dated 2012).
